This is an account of results in patent US8258158B2 (Hoffmann-La Roche Inc., priority 2009, dated 2012).

The structures appear in SMILES notation.

The assay has as its target T1, human HSL (Homo sapiens, UniProt Q05469).
T1 construct: overlapping PCR to generate a full length human HSL ORF with a 3′-His6 tag; His6 (C); made in house; host or cells: High 5 insect cells (baculovirus, pFast-BAC)
T1 sequence (Q05469 1-1076): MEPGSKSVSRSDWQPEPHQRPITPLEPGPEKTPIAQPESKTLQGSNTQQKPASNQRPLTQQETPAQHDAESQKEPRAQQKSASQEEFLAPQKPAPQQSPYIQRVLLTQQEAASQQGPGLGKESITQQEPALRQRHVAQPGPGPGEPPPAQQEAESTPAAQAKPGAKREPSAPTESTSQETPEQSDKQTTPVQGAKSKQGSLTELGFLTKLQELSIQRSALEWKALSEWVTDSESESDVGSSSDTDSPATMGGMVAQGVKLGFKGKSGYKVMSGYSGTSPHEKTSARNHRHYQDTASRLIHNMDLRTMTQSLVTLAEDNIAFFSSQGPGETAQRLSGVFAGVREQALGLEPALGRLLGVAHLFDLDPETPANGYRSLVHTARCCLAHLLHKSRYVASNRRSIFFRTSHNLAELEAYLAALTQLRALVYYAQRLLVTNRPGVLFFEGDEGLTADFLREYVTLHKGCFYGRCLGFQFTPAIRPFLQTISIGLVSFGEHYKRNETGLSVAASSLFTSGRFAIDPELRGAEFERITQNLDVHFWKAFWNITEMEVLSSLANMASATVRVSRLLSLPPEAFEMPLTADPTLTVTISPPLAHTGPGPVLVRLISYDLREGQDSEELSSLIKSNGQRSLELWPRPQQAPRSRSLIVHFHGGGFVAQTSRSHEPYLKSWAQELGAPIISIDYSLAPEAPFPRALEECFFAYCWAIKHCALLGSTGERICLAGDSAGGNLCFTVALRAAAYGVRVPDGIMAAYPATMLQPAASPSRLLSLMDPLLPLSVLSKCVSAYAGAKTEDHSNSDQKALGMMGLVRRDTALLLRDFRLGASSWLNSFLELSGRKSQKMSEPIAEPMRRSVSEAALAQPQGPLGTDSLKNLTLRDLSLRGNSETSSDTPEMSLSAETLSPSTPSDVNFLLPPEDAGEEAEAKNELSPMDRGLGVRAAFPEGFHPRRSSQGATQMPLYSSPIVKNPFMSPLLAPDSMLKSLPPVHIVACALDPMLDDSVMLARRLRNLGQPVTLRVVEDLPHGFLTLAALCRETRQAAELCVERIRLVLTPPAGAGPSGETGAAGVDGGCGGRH
Briefly: Human hormone-sensitive lipase (HSL) enzyme inhibition assay (colorimetric, DMPT substrate). The assay is classed as biochemical. To be noted: human full length HSL-His6; 2,3-dimercapto-1-propanol tributyrate substrate; 37° C., 20 minutes; read-out: HSL hum IC50. As to the method: Production of Human Full Length Hormone Sensitive Lipase-His^6:
1) Cloning: cDNA was prepared from commercial human brain polyA+ RNA and used as a template in overlapping PCR to generate a full length human HSL ORF with a 3′-His6 tag. This full length insert was cloned into the pFast-BAC vector and the DNA-sequence of several single clones was verified. DNA from a correct full length clone with the 3′His6 tag was used to transform the E. coli strain DH10BAC. Resulting bacmid DNA was used to generate a titered baculovirus stock for protein generation. The sequence of the encoded HSL conforms to Swissprot entry Q05469, with the additional C-terminal His6-tag.
2) Protein purification: Culture: 5.5 L, High 5 cells expressing human full length HSL-His^6, 48 hr., containing 25 μM E-64. Cell count: […], 90% viable. Cells were thawed. On ice, cells were suspended in Base Buffer containing 10% glycerol, 25 mM Tris-Cl, 300 mM NaCl, 10 mM imidazole, 10 mM 2-mercaptoethanol, 2 μg pepstatin/ml, 2 μg leupeptin/ml, 2 μg antipain/ml, pH 8.0 at 4° C. in a final volume of 475 ml with 3.75×10^7 cells/ml. […] was done at 3×30 sec., Lubrol PX was added to 0.2% final concentration followed by stirring for 15 min. at 4° C. and centrifugation at 25 k×g, 60 min., 4° C. Soluble proteins were mixed with 60 ml of pre-washed and equilibrated Ni-NTA Agarose (Qiagen 30210) followed by tumbling end-over-end, 45 min., 4° C., centrifugation 1000 rpm 5 min and letting resin settle 5 min. Supernatant was removed, the resin washed in the centrifuge vessel using 5 volumes of Base Buffer containing 0.2% Lubrol PX. Centrifugation was done again, then the supernatant discarded. The resin was poured onto a 0.8 μm membrane in a disposable filter unit (Nalge 450-0080), and washed with 5 volumes of Base Buffer containing 0.2% Lubrol PX. It was then washed with 30 volumes of Base Buffer containing 60 mM imidazole pH 7.5 at 4° C. The protein was eluated with 5 volumes of 25 mM Tris-Cl, 300 mM NaCl, 200 mM imidazole, 10 mM 2-mercaptoethanol, pH 7.5 at 4° C. by tumbling resin with buffer end-over-end, 30 min., 4° C. The resin was captured on a 0.2 μm membrane disposable filter unit (Millipore SCGP U02 RE) and the eluate collected in the reservoir. The eluate was concentrated using a 30 k MWCO centrifugal filter device (Sartorius Vivascience Vivacell 100, VC1022), to 20 ml. It was then dialyzed overnight at 4° C., two times against 2 L of 10% glycerol, 25 mM Tris-Cl, 300 mM NaCl, 0.2 mM EDTA, 0.2 mM DTT, pH 7.5 at 4° C. The protein was filtered using a 0.22 μm disposable filter unit (Millipore SCGP00525). The protein concentration was calculated from absorbance at 280 nm, using 280=0.67 cm-1 mg-1. Yield was 235 mg, total. The protein was stored at −80° C.
Human Hormone-Sensitive Lipase (HSL) Enzyme Inhibition Assay:
HSL enzyme activity was measured by a colorimetric assay using 2,3-dimercapto-1-propanol tributyrate (Aldrich, St. Louis, Mo.) as a substrate. Typically, 1.5 mM 2,3-dimercapto-1-propanol tributyrate (DMPT) in 100 mM MOPS, pH 7.2, 0.2 mg/ml fatty acid-free BSA was prepared by sonication at 4° C. to homogenous suspension. Test compounds (2 mM stock in DMSO) were diluted 3 fold in series in DMSO. Compound solutions were diluted 24 fold in 1.5 mM DMPT containing solution and 18 ul per well was added to 384-well microplates (Corning Costar). Twelve microliters per well of human HSL (15 ug/ml) was added and the reaction mixture was incubated at 37° C. for 20 minutes. Six microliters of 12 mM dithio-bis-(2-nitrobenzoic acid) (DTNB) in DMSO plus 1.2% SDS and 0.6% Triton X-100 were added and the mixture was incubated at room temperature for 15 minutes. Product production was monitored by reading absorbance at 405 nm on an Envision Reader (PerkinElmer Life and Analytical Sciences, Shelton, Conn.).
For orientation: IC50 means the concentration that gives 50% inhibition. On to `CCN(C(=O)C1CCN(S(=O)(=O)c2ccc(C)cc2)CC1)c1ccc(OC(C)C(F)(F)F)cc1` (racemic) [Example 4, (rac)-1-(Toluene-4-sulfonyl)-piperidine-4-carboxylic acid ethyl-[4-(2,2,2-trifluoro-1-methyl-ethoxy)-phenyl]-amide], for which the half-inhibitory concentration (IC50) was 3000 nM.

As to `Cc1ccc(S(=O)(=O)N2CCC(C(=O)N(C)c3ccc(OC(C)C(F)(F)F)cc3)CC2)cc1` (racemic) [Example 5, (rac)-1-(Toluene-4-sulfonyl)-piperidine-4-carboxylic acid methyl-[4-(2,2,2-trifluoro-1-methyl-ethoxy)-phenyl]-amide], the concentration for half-maximal inhibition (IC50) was found to be 120 nM.

On to `Cc1ccc(S(=O)(=O)N2CCC(C(=O)Nc3ccc(OC(C)C(F)(F)F)nc3)CC2)cc1` (racemic) [Example 6, (rac)-1-(Toluene-4-sulfonyl)-piperidine-4-carboxylic acid [6-(2,2,2-trifluoro-1-methyl-ethoxy)-pyridin-3-yl]-amide], for which the IC50 turned out to be 120 nM.

In the case of `CN(C(=O)[C@H]1CCN(S(=O)(=O)c2ccccc2Cl)[C@H](CO)C1)c1ccc(OC(F)(F)F)cc1` (racemic) [Example 11, (2S,4S)-1-(2-Chloro-benzenesulfonyl)-2-hydroxymethyl-piperidine-4-carboxylic acid methyl-(4-trifluoromethoxy-phenyl)-amide and (2R,4R)-1-(2-Chloro-benzenesulfonyl)-2-hydroxymethyl-piperidine-4-carboxylic acid methyl-(4-trifluoromethoxy-phenyl)-amide], the concentration for half-maximal inhibition (IC50) was 80 nM.

With `COC[C@@H]1C[C@@H](C(=O)Nc2ccc(OC(F)(F)F)cc2)CCN1S(=O)(=O)c1ccc(C)cc1` (racemic) [Example 23, Racemic Mixture of Example 23a which is (2S,4S)-2-Methoxymethyl-1-(toluene-4-sulfonyl)-piperidine-4-carboxylic acid (4-trifluoromethoxy-phenyl)-amide and Example 23b which is (2R,4R)-2-Methoxymethyl-1-(toluene-4-sulfonyl)-piperidine-4-carboxylic acid (4-trifluoromethoxy-phenyl)-amide], the IC50 came out at 110 nM.

With `CC(Oc1ccc(NC(=O)C2(CO)CCN(S(=O)(=O)c3ccccc3Cl)CC2)cc1)C(F)(F)F` (racemic) [Example 24, 1-(2-Chloro-benzenesulfonyl)-4-hydroxymethyl-piperidine-4-carboxylic acid [4-(2,2,2-trifluoro-1-methyl-ethoxy)-phenyl]-amide], the half-maximal inhibitory concentration (IC50) worked out at 1140 nM.

For `Cc1ccc(S(=O)(=O)N2CCC(C(=O)Nc3ccc(OC(C)C(F)(F)F)cc3)CC2)cc1` (racemic) [Example 25, (rac)-1-(toluene-4-sulfonyl)-piperidine-4-carboxylic acid [4-(2,2,2-trifluoro-1-methyl-ethoxy)-phenyl]-amide], the IC50 stood at 90 nM.

Consider `CC(Oc1ccc(NC(=O)C2(CO)CCN(S(=O)(=O)c3ccccc3)CC2)cc1)C(F)(F)F` (racemic) [Example 27, (rac)-1-Benzenesulfonyl-4-hydroxymethyl-piperidine-4-carboxylic acid [4-(2,2,2-trifluoro-1-methyl-ethoxy)-phenyl]-amide], for which the IC50 came out at 950 nM.

Turning to `Cc1ccc(S(=O)(=O)N2CCC(F)(C(=O)Nc3ccc(OC(C)C(F)(F)F)cc3)CC2)cc1` (racemic) [Example 32, (rac-4-Fluoro-1-(toluene-4-sulfonyl)-piperidine-4-carboxylic acid [4-(2,2,2-trifluoro-1-methyl-ethoxy)-phenyl]-amide], the IC50 was 920 nM.

For the compound `Cc1ccc(S(=O)(=O)N2CCC(C(=O)Nc3ccc(OC(C)C4CC4)cc3)CC2)cc1` (racemic) [Example 34, (rac)-1-(Toluene-4-sulfonyl)-piperidine-4-carboxylic acid [4-(1-cyclopropyl-ethoxy)-phenyl]-amide], the 50% inhibitory concentration (IC50) was 90 nM.

For the compound `O=C(Nc1ccc(OC(F)(F)F)cc1)[C@H]1CCN(S(=O)(=O)c2ccccc2Cl)[C@H](CO)C1` (racemic) [Example 36, (2S,4S)-1-(2-Chloro-benzenesulfonyl)-2-hydroxymethyl-piperidine-4-carboxylic acid (4-trifluoromethoxy-phenyl)-amide and (2R,4R)-1-(2-Chloro-benzenesulfonyl)-2-hydroxymethyl-piperidine-4-carboxylic acid (4-trifluoromethoxy-phenyl)-amide], the IC50 was 50 nM.

Turning to `CC(Oc1ccc(NC(=O)C2CCN(S(=O)(=O)c3ccccc3Cl)CC2)cc1)C(F)(F)F` (racemic) [Example 40, (rac)-1-(2-Chloro-benzenesulfonyl)-piperidine-4-carboxylic acid [4-(2,2,2-trifluoro-1-methyl-ethoxy)-phenyl]-amide], the IC50 came to 70 nM.

As to `Cc1ccc(S(=O)(=O)N2CC[C@H](C(=O)Nc3ccc(OC(F)(F)F)cc3)C[C@H]2CO)cc1` (racemic) [Example 42, (2S,4S)-2-Hydroxymethyl-1-(toluene-4-sulfonyl)-piperidine-4-carboxylic acid (4-trifluoromethoxy-phenyl)-amide and (2R,4R)-2-Hydroxymethyl-1-(toluene-4-sulfonyl)-piperidine-4-carboxylic acid (4-trifluoromethoxy-phenyl)-amide], the 50% inhibitory concentration (IC50) was 40 nM.

Take `Cc1ccc(S(=O)(=O)N2CCC(C)(C(=O)Nc3ccc(OC(C)C(F)(F)F)cc3)CC2)cc1` (racemic) [Example 43, (rac)-4-Methyl-1-(toluene-4-sulfonyl)-piperidine-4-carboxylic acid [4-(2,2,2-trifluoro-1-methyl-ethoxy)-phenyl]-amide]: the half-inhibitory concentration (IC50) amounted to 810 nM.
